Tests used:
FGF21 = FGF21 expression in hepatocytes (quantitative real-time RT-PCR); format: cell-based, human; conditions: Huh-7 hepatocytes, 24 h, 10 μM; FIG. 9
Experimental: Human Huh-7 hepatocytes were incubated for 24 h in the absence (Control, CT) or in the presence of compounds (10 μM). Assessment by quantitative real-time RT-PCR of FGF21. Data are presented as the mean±SD (n=4 per group). ***p<0.001 and **p<0.01 vs CT. ^###p<0.001, ^##p<0.01 and ^#p<0.05 vs BTCtFPU. ^††p<0.01 and ^†p<0.05 vs BTdCPU. BTCtFPU=1-(benzo[d][1,2,3]thiadiazol-6-yl)-3-(4-chloro-3-(trifluoromethyl)phenyl)urea (compound (3) in Chen T. et al., ibid.).

HRI = target: T1, HRI (Homo sapiens, UniProt Q9BQI3); assay: HRI phosphorylation in human Huh-7 hepatic cells (Western-blot, ratio phosphorylated/total HRI); format: cell-based; conditions: Huh-7 cells, 24 h, 10 μM; for ratio phosphorylated/total HRI: vs vehicle (DMSO) control, FIG. 1, FIG. 2
T1 construct: endogenous in cells; host or cells: Huh-7 human hepatic cells
T1 sequence (Q9BQI3 whole entry): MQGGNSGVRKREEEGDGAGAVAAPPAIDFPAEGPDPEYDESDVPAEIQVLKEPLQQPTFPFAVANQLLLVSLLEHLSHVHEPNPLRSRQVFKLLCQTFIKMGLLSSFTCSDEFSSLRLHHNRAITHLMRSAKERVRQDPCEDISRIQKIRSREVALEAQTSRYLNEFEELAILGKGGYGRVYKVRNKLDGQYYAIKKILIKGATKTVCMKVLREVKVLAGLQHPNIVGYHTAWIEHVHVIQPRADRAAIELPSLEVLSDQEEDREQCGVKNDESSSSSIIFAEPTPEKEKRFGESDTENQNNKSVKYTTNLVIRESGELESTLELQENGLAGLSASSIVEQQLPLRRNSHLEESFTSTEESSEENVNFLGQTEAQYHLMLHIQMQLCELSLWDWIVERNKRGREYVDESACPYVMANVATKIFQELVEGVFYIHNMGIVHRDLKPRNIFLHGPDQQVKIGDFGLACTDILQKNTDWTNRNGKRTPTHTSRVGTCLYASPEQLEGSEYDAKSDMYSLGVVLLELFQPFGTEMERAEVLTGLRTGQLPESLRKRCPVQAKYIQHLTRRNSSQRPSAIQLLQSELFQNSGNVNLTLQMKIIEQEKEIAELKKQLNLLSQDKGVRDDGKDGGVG
Description: Data are presented as the mean±SD (n=4). *p<0.05 vs. control (CT) cells. ^#p<0.05 vs. BTdCPU-treated cells. BTdCPU=1-(benzo[d][1,2,3]thiadiazol-6-yl)-3-(3,4-dichlorophenyl)urea (compound (2) in Chen T. et al., ibid.).
Data are presented as the mean±SD (n=4). ***p<0.001 and *p<0.05 vs. control (CT) cells. ^#p<0.05 vs. BTdCPU-treated cells. Compound I-2 (1-(4-chloro-3-(trifluoromethyl)phenyl)-3-(4-chloro-3-(trifluoromethyl)phenyl)urea is not part of the present invention, but it has been introduced in some figures for comparative purposes.
HRI is activated by autophosphorylation and this has been used for evaluating its activation. In fact, the hyperphosphorylation of HRI is accompanied by an increase of its eIF2α kinase activity (cf. Lu L. et al., “Translation initiation control by heme-regulated eukaryotic initiation factor 2a kinase in erythroid cells under cytoplasmic stresses”, Mol. Cell. Biol., 2001, vol. 21, pp. 7971-7980). Therefore, HRI protein constitutively exists as the native nonphosphorylated 76-kDa species and/or the autoactivated/autophosphorylated 92-kDa, although the relative abundance of each HRI species tends to vary depending on the cells examined (cf. Acharya P. et al., “Hepatic heme-regulated inhibitor (HRI) eukaryotic initiation factor 2a kinase: A protagonist of heme-mediated translational control of CYP2B enzymes and a modulator of basal endoplasmic reticulum stress tone”, Mol. Pharmacol, 2010, vol. 77, pp. 575-592). […] Thus Huh-7 cells were incubated for 24 h with vehicle (DMSO, CT cells) or 10 μM of each of the assayed compound. The effects of these compounds were compared to the well-known HRI activator BTdCPU.

eIF2α = eIF2α phosphorylation in human Huh-7 hepatic cells (Western-blot); format: cell-based; conditions: Huh-7 cells, 24 h, 10 μM, compared to BTdCPU; FIG. 3, FIG. 4
Description: Data are presented as the mean±SD (n=4). **p<0.01 and *p<0.05 vs. control (CT) cells. ^##p<0.01 and ^#p<0.05 vs. BTdCPU-treated cells.
Data are presented as the mean±SD (n=4). *p<0.05 vs. control (CT) cells.
HRI is a kinase that phosphorylates eukaryotic Initiation Factor 2α (eIF-2a) at its Ser 51 residue to execute protein synthesis regulation and thereby HRI activators cause the phosphorylation of eIF2α as previously described (Chen T, et al., ibid). To confirm whether the new synthesized compounds were able to activate the HRI eIF2α kinase inventors examined the eIF2α phosphorylation caused by these compounds compared to the well-known HRI eIF2α kinase activator BTdCPU. Human Huh-7 hepatocytes were incubated for 24 h with vehicle (DMSO, CT cells) or 10 μM of each of the assayed compounds. eIF2α phosphorylation was determined by Western-blot.

Row | melting point | total HRI (HRI; FIG. 2) | Structure (SMILES) | FGF21 expression compared with BTCtFPU (FGF21) | FGF21 expression compared with BTdCPU (FGF21) | ratio phosphorylated/total HRI (HRI) | eIF2α phosphorylation (eIF2α)
1 | 216 to 217 °C | – | O=C(Nc1ccc(S(F)(F)(F)(F)F)cc1)Nc1cccc(S(F)(F)(F)(F)F)c1 [compound I-37, 1-(3-(Pentafluoro-λ^6-sulfanyl)phenyl)-3-(4-(pentafluoro-λ^6-sulfanyl)phenyl)urea] | significant higher increase than compound BTCtFPU | significant higher increase in FGF21 expression than compound BTdCPU | – | –
2 | 213 to 214 °C | – | O=C(Nc1ccc(Cl)c(S(F)(F)(F)(F)F)c1)Nc1ccc2nnsc2c1 [compound I-29, 1-(Benzo[d][1,2,3]thiadiazol-6-yl)-3-(4-chloro-3-(pentafluoro-λ^6-sulfanyl)phenyl)urea] | – | higher increase in FGF21 expression than that observed for compound BTdCPU | increased the ratio phosphorylated/total HRI | marked increase in eIF2α phosphorylation, higher than the observed with BTdCPU
3 | 237 to 238 °C | – | O=C(Nc1ccc(Cl)c(S(F)(F)(F)(F)F)c1)Nc1ccc(Cl)c(S(F)(F)(F)(F)F)c1 [compound I-38, 1,3-Bis(4-chloro-3-(pentafluoro-λ^6-sulfanyl)phenyl)urea] | significant higher increase than compound BTCtFPU | significant higher increase in FGF21 expression than compound BTdCPU | – | –
4 | – | – | O=C(Nc1cccc(S(F)(F)(F)(F)F)c1)Nc1cccc(S(F)(F)(F)(F)F)c1 [compound I-36, 1,3-Bis(3-(pentafluoro-λ^6-sulfanyl)phenyl)urea] | significant higher increase than compound BTCtFPU | significant higher increase in FGF21 expression than compound BTdCPU | – | –
5 | 225 °C | – | O=C(Nc1ccc2nnsc2c1)Nc1cccc(S(F)(F)(F)(F)F)c1Cl [compound I-28, 1-(Benzo[d][1,2,3]thiadiazol-6-yl)-3-(2-chloro-3-(pentafluoro-λ^6-sulfanyl)phenyl)urea] | – | – | increased the ratio phosphorylated/total HRI | marked increase in eIF2α phosphorylation, higher than the observed with BTdCPU
6 | 227 °C | – | O=C(Nc1ccc2nnsc2c1)Nc1cc(S(F)(F)(F)(F)F)ccc1Cl [compound I-27, 1-(Benzo[d][1,2,3]thiadiazol-6-yl)-3-(2-chloro-5-(pentafluoro-λ^6-sulfanyl)phenyl)urea] | – | – | increased the ratio phosphorylated/total HRI | marked increase in eIF2α phosphorylation, higher than the observed with BTdCPU
7 | 229 to 230 °C | – | O=C(Nc1cccc(S(F)(F)(F)(F)F)c1)Nc1ccc2nnsc2c1 [compound I-26, 1-(Benzo[d][1,2,3]thiadiazol-6-yl)-3-(3-(pentafluoro-λ^6-sulfanyl)phenyl)urea] | higher expression in FGF21 than BTCtFPU | higher increase in FGF21 expression than that observed for compound BTdCPU | increased the ratio phosphorylated/total HRI | marked increase in eIF2α phosphorylation, higher than the observed with BTdCPU
8 | 156 to 157 °C | reduction in total HRI | O=C(Nc1ccc(Cl)c(C(F)(F)F)c1)Nc1cc(S(F)(F)(F)(F)F)ccc1Cl [compound I-33, 1-(4-Chloro-3-(trifluoromethyl)phenyl)-3-(2-chloro-5-(pentafluoro-λ^6-sulfanyl)phenyl)urea] | – | – | increase caused by I-33 was also statistically significant | enhanced eIF2α phosphorylation to values similar to those achieved by BTdCPU exposure
9 | 274 to 275 °C | – | O=C(Nc1ccc(S(F)(F)(F)(F)F)cc1)Nc1ccc2nnsc2c1 [compound I-25, 1-(Benzo[d][1,2,3]thiadiazol-6-yl)-3-(4-(pentafluoro-λ^6-sulfanyl)phenyl)urea] | – | – | increased the ratio phosphorylated/total HRI | –
10 | 227 to 228 °C | – | O=C(Nc1cc(S(F)(F)(F)(F)F)ccc1Cl)Nc1cc(S(F)(F)(F)(F)F)ccc1Cl [compound I-32, 1,3-Bis(2-chloro-5-(pentafluoro-λ^6-sulfanyl)phenyl)urea] | – | – | – | –
